According to patent publication US5023257A, “Intramuscular injection forms of gyrase inhibitors” (Bayer Aktiengesellschaft, priority 1988, dated 1991):

Test: release of the active compound from intramuscular suspensions
Settings: oily suspensions, water-soluble form (hydrochlorides, lactates, mesilates and other salts), particularly with interfacially surface active materials

O=C(O)c1cn(C2CC2)c2cc(N3CCNCC3)c(F)cc2c1=O [ciprofloxacin]
release of the active compound: very rapidly
